Source: patent US12593846B2, “Combinations of triazolone herbicides with safeners” (priority 2020, dated 2026)

Legend:
Assay type in all cases: in vivo
soybean plants = test: Number of soybean plants standing after herbicidal treatment; settings: average of 4 replications; for Number of plants standing 14 DAA: 14 days after administration; for Number of plants standing 28 DAA: 28 days after administration
Description: (§1) Experiments were carried out to evaluate the phytotoxicity, effect on plant height and effect on number of plants standing after treatments with combinations of one or more triazolone herbicides with one or more safeners.
(§2) Below table gives summary of the formulation details and application details of Sulfentrazone and Mefenpyr-diethyl, Isoxadifen-ethyl and Cloquintocet-mexyl that were used in combination with Sulfentrazone for treatments. Application method was spray and applications were made to soil.
(§3) Below table gives summary of the formulation details and application details of Sulfentrazone and Dichlormid, Fenclorim, Benoxacor, Flurazole and Fluxofenim that were used in combination with Sulfentrazone for treatments. Application method was spray and applications were made to soil.
Below table gives summary of effect on number of soybean plants standing after herbicidal treatment shown by untreated check, Sulfentrazone alone and combination of Sulfentrazone with Mefenpyr-diethyl, Isoxadifen-ethyl and Cloquintocet-mexyl at different application rates.
Below table gives summary of effect on number of soybean plants standing after herbicidal treatment shown by untreated check, Sulfentrazone alone and combination of Sulfentrazone with Dichlormid, Fenclorim, Benoxacor, Flurazole and Fluxofenim at different application rates.

soybean plant = test: Effect on plant height of soybean plant; settings: average of 4 replications; for Plant height 14 DAA: 14 days after administration; for Plant height 28 DAA: 28 days after administration
Description: as §1, §2, §3
Below table gives summary of effect on plant height of soybean plant shown by untreated check, Sulfentrazone alone and combination of Sulfentrazone with Mefenpyr-diethyl, Isoxadifen-ethyl and Cloquintocet-mexyl at different application rates.
Below table gives summary of effect on plant height of soybean plant shown by untreated check, Sulfentrazone alone and combination of Sulfentrazone with Dichlormid, Fenclorim, Benoxacor, Flurazole and Fluxofenim at different application rates.

Brachiaria decumbens = test: % weed control in soybean crop, spray application to soil; design: concentration or dose not given beside the values; settings: average of 4 replications; for % Weed Control 7 DAA: 7 days after administration; for % Weed Control 14 DAA: 14 days after administration; for % Weed Control 21 DAA: 21 days after administration; for % Weed Control 28 DAA: 28 days after administration; for % Weed Control 35 DAA: 35 days after administration
Description: as §2, §3
Below table gives summary of % weed control shown in soybean crop by untreated check, Sulfentrazone alone and combination of Sulfentrazone with Mefenpyr-diethyl, Isoxadifen-ethyl and Cloquintocet-mexyl at different application rates. % weed control was checked for weed Brachiaria decumbens.
Below table gives summary of % weed control in soybean crop shown by untreated check, Sulfentrazone alone and combination of Sulfentrazone with Dichlormid, Fenclorim, Benoxacor, Flurazole and Fluxofenim at different application rates. % weed control was checked for weed Brachiaria decumbens.

[1] = treatments 9-20 (rates in Table 2)
[2] = treatments 1-8 (rates in Table 1)

Row | SMILES | Number of plants standing 14 DAA (soybean plants; [1]) | Number of plants standing 28 DAA (soybean plants; [1]) | Plant height 14 DAA (soybean plant; [1]) | Plant height 28 DAA (soybean plant; [1]) | % Weed Control 7 DAA (Brachiaria decumbens; [1]) [%] | % Weed Control 14 DAA (Brachiaria decumbens; [1]) [%] | % Weed Control 21 DAA (Brachiaria decumbens; [1]) [%] | % Weed Control 28 DAA (Brachiaria decumbens; [1]) [%] | % Weed Control 35 DAA (Brachiaria decumbens; [1]) [%] | Number of plants standing 14 DAA (soybean plants; [2]) | Number of plants standing 28 DAA (soybean plants; [2]) | Plant height 14 DAA (soybean plant; [2]) | Plant height 28 DAA (soybean plant; [2]) | % Weed Control 7 DAA (Brachiaria decumbens; [2]) [%] | % Weed Control 14 DAA (Brachiaria decumbens; [2]) [%] | % Weed Control 21 DAA (Brachiaria decumbens; [2]) [%] | % Weed Control 28 DAA (Brachiaria decumbens; [2]) [%] | % Weed Control 35 DAA (Brachiaria decumbens; [2]) [%]
1 | Cc1nn(-c2cc(NS(C)(=O)=O)c(Cl)cc2Cl)c(=O)n1C(F)F [Treatment 10] | 5.3 | 5.3 | 6.65 | 10.90 | 100 | 100 | 100 | 100 | 100 |  |  |  |  |  |  |  |  | 
2 | Cc1nn(-c2cc(NS(C)(=O)=O)c(Cl)cc2Cl)c(=O)n1C(F)F [Treatment 2] |  |  |  |  |  |  |  |  |  | 5.3 | 4.5 | 2.90 | 5.15 | 100 | 100 | 100 | 100 | 100
